These results are taken from patent US8796203B2, “Use of tight junction antagonists to treat inflammatory bowel disease” (Alba Therapeutics Corporation, priority 2006, dated 2014).

What all share (format): in vivo
In test [1] the test system is 129/Svev/IL-10KO mouse. The test can be described thus: Small intestinal permeability by lactulose mannitol test in IL-10 KO mouse. As to conditions: high dose AT-1001 (1 mg/ml in drinking water, ad libidum), FIGS. 1-4. Here is the method:
(§1) The purpose of this study is to determine the ability of AT-1001, administered daily in drinking water to alter intestinal permeability (measured by absorption/excretion of lactulose and mannitol) and to inhibit the development of colitis in the 129/Svev/IL-10KO mouse.
AT-1001 neat chemical will be administered ad libidum every day starting at day 1 to Group 3 at 0.1 mg/ml and Group 4 at 1 mg/ml in sterile water via the drinking water supply. Dosing of AT-1001 will be continued when the animals are in the metabolic cages for 22 hours. Probiotic conditioned medium will be given every morning to Group 2. The solution is prepared by dissolving 0.01 g in 10 ml of MRS medium and incubating it at 37° C. for 24 h. After incubation, the tube will be centrifuged 10 minutes at 10,000 rpm. The supernatant will be filtered through a 0.22 micron filter and diluted 1:10 with MRS medium. Animals will receive 30 μl of this dilution every morning. The conditioned media must be prepared fresh every morning.
Each week, food and water will be removed 4 hours prior to gavage. […]
During each intestinal permeability trial, all subjects will be gavaged with suc/lac/man/sucralose solution and placed in metabolic cages immediately after to enable urine collection. […] All sugars will be quantified by ion exchange HPLC. […]

The test system of test [2] is 129/Svev/IL-10KO mouse colon. The test can be described thus: Colonic permeability and electrical resistance, Ussing chamber measurements, IL-10 KO mouse. As to conditions: at 8 weeks of age, AT-1001 in drinking water, versus untreated animals. On the procedure:
as §1
(§2) FIG. 5-10 show the results of analysis of disease in the colon. Disease in the colon was evaluated at both 8 and 17 week time points. The former with Ussing chamber measurements and the latter with histology, mucosal cytokine secretion, MPO and sucralose permeability.

In test [3] the test system is 129/Svev/IL-10KO mouse colon. The experiment in a line: Colonic inflammation (histology, mucosal cytokine secretion, MPO) in IL-10 KO mouse. As to conditions: at 17 weeks; AT-1001 in drinking water.
From the text: as §1
Immediately upon expiration, stomachs, small intestines, and colons will be collected and weighed. Each tissue will be scored for macroscopic lesions to assess intestinal damage by the Study Pathologist. ELISAs will be performed on each tissue to measure the levels of MPO, IL-8, TNFα, and IFNγ. A section of the tissues will be fixed in formalin for HE histology. The day after the final intestinal permeability measures on day 77, all surviving animals will be euthanized and intestinal tissues collected and processed.
as §2

As for AT-1001, the “increase in small intestinal permeability associated with development of disease” value in test [1] was “abrogated”. In addition, in test [2], the colonic electrical resistance entry is reported as “prevented the reduction in electrical resistance” and the “colonic permeability to mannitol” value is recorded as “reduced colonic permeability to mannitol”. For the same substance, the “tissue markers of colonic inflammation (neutrophil infiltration/MPO, TNF and IFN secretion over 24 hours)” value in test [3] is “reduced all tissue markers of colonic inflammation that were measured”.
